Experimental data taken from patent US20240245607A1, “Microencapsulation of Active Agents” (Temple University-Of The Commonwealth System of Higher …, priority 2016, published 2024).
Structures can show the parent of a compound that is named as a salt. Where two headings read alike, the source gives them in different places.

Experiments:
[1] = IR spectra of encapsulated compounds in stearic acid microspheres (degradation); format: physicochemical
Description: Bitter taste stimuli are prepared in a similar manner, except at a pH of 8.0. Along with stearic acid, SOA is melted at ˜100° C., quinine HCl·7H2O is melted at ˜165° C., quinine HCl·2H2O is melted at 116° C., or n-propylthiouracil (PROP) is melted at ˜150° C. before addition to a rapidly stirred buffer solution. […] The quinine content of microspheres is measured by fluorescence emission or by absorbance in the ultra-violet region. SOA content of microspheres is measured by the anthrone reaction, and PROP and PTC content of microspheres is measured by UV absorption at 275 nm.
After drying, loaded microspheres are dissolved in a solvent such as acetonitrile or acetonitrile/HEPES, and the encapsulated compound is assayed by absorption spectroscopy, fluorescence emission, or infra-red spectroscopy. The melting point is then measured in order to identify the melting point range of the microspheres. If needed, these lipid microspheres could be embedded within pullulan-based films for long term storage. Stearic acid microspheres encapsulate 2,4-D or DCMU (Diuron) at a weight-to-weight ratio of approximately 15:I. In addition, the melting point of lipid microspheres is lowered to 38-40° C. for the controlled release of these compounds from microspheres. The melting temperature range varies from 8 to 10° C.

sweet taste = conditions: cited from earlier work

SMILES: O=[N+]([O-])c1ccc(O)c([N+](=O)[O-])c1 [2,4-dinitrophenol]
- degradation by IR data ([1]; after encapsulation within stearic acid microspheres): not degraded

SMILES: CC(=O)OC[C@H]1O[C@@](COC(C)=O)(O[C@H]2O[C@H](COC(C)=O)[C@@H](OC(C)=O)[C@H](OC(C)=O)[C@H]2OC(C)=O)[C@@H](OC(C)=O)[C@@H]1OC(C)=O [SOA, sucrose octaacetate]
- degradation of components by IR spectra [1]: no components were graded

SMILES: CCCc1cc(=O)[nH]c(=S)[nH]1 [PROP, n-propylthiouracil]
- degradation of components by IR spectra [1]: no components were graded

SMILES: C=C[C@H]1C[N@@]2CC[C@H]1C[C@H]2[C@H](O)c1ccnc2ccc(OC)cc12 [quinine, quinine HCl]
- degradation of components by IR spectra [1]: no components were graded

SMILES: CN(C)C(=O)Nc1ccc(Cl)c(Cl)c1 [DCMU, diuron]
- degradation by IR data [1]: undegraded

SMILES: OC[C@H]1O[C@H](O[C@]2(CCl)O[C@H](CCl)[C@@H](O)[C@@H]2O)[C@H](O)[C@@H](O)[C@H]1Cl [sucralose]
- sweetness compared with sucrose (sweet taste): approximately 600 times
- degradation of components by IR spectra [1]: no components were graded
